This is an account of results in US8709506B2, “Synergistic compositions for the treatment of topical viral infections” (Vitro Bio Sarl, priority 2010, dated 2014).

One test concerns herpes virus. It counts as cell-based. Particulars: for % cell death after 72 h TCID50 herpes virus infection: protease 0.5 μg/ml, Vero cells, serum free medium, virus control 56.0 ± 2.3.
For a further test, the system named is influenza virus. It counts as cell-based. Particulars: for % cell death after 72 h TCID50 influenza virus infection: protease 0.5 μg/ml, MDCK cells, serum free medium, virus control 48.21 ± 6.77.

“MMP-3: purified human MMP 3 (stromelysin-1), AnaSpec”: in the test on herpes virus, the “% increase in herpes virus growth compared to controls” value (“% increase in herpes virus growth” below) is recorded as “+7.57%” and the “% cell death after 72 h TCID50 herpes virus infection” value was found to be 64.16 ± 4.29%. Further, in the test on influenza virus, the “% increase in influenza viral growth compared to virus control” value (“% increase in influenza viral growth” for short) is −8.49%.

Turning to “MMP-7: purified human MMP7 (proenzyme), AnaSpec”, in the test with herpes virus, the “% increase in herpes virus growth” value was “+1.96%” and the “% cell death after 72 h TCID50 herpes virus infection” value turned out to be 57.10 ± 6.68%. Also, in the test with influenza virus, the “% increase in influenza viral growth” value is on record as “+50.92%” and the “% cell death after 72 h TCID50 influenza virus infection” value was determined as 72.76 ± 5.96%.

With “MMP-1: purified human MMP 1 (interstitial and fibroblast collagenase), AnaSpec”, in the test with herpes virus, the “% increase in herpes virus growth” value was “+8.43%” and the “% cell death after 72 h TCID50 herpes virus infection” value was 66.32 ± 7.11%. Also, in the test with influenza virus, the “% increase in influenza viral growth” value is “+63.87%” and the “% cell death after 72 h TCID50 influenza virus infection” value came to 47.76 ± 7.26%.

As to “MMP-10: purified human MMP-10 (stromelysin 2), AnaSpec”, in the test with herpes virus, the “% increase in herpes virus growth” value was “+25.82%” and the “% cell death after 72 h TCID50 herpes virus infection” value is listed as 70.46 ± 5.41%. Also, in the test on influenza virus, the “% increase in influenza viral growth” value is recorded as “+8.26%” and the “% cell death after 72 h TCID50 influenza virus infection” value was 52.19 ± 7.56%.
